33 molecules from patent US8664257B2, “Oxygen-substituted 3-heteroaroylamino-propionic acid derivatives and their use as pharmaceuticals” (Sanofi, priority 2010, dated 2014) can be followed below.

The structures appear in SMILES notation. Where only a bound is given, the exact number is not on record here.

For the first test, the target named is T1, Recombinant human cathepsin A (Homo sapiens, UniProt P10619).
T1 construct: Recombinant human cathepsin A (residues 29-480, with a C-terminal 10-His tag); 10-His (C); purchased R&D Systems 1049-SE
T1 sequence (P10619 29-312 limits assumed): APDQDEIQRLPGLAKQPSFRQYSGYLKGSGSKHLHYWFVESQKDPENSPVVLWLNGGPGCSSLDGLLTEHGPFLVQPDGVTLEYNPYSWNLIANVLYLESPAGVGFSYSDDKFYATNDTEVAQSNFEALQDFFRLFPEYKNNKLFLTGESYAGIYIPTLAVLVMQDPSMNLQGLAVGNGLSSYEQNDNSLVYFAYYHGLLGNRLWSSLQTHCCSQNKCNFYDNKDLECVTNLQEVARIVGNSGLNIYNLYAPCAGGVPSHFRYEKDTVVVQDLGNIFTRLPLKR
T1 sequence (P10619 327-480 limits assumed): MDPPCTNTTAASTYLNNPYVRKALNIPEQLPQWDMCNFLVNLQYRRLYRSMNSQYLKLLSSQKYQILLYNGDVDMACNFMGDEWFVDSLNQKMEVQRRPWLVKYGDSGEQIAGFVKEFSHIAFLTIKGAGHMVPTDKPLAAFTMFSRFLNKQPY
Briefly: Cathepsin A inhibitory activity. The settings on record: pharmacological test "Cathepsin A inhibitory activity"; IC50 given as class A/B/C; read-out: Activity (2): Cathepsin A inhibitory activity, IC50 class. The class given is biochemical. The procedure, abridged:
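Human cathepsin A (res. 29-480, C-His10) pre-activated with cathepsin L (MES pH 6.0, DTT, 15 min, 37 °C; quenched with 10 μM E-64). Enzyme (833 ng/ml) preincubated 15 min RT with compound in MES pH 5.5/DTT, then 2 μM Bodipy FL-bradykinin for 15 min RT. Capillary electrophoresis product/substrate peak areas; IC50 from % inhibition.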
Turning to `O=C(O)C[C@H](NC(=O)c1cc(O)n(-c2ccccc2Cl)n1)c1cccc(Cl)c1Cl` [Example 212], the IC50 is below 100 nM.

Consider `Cc1cc(F)ccc1C(CC(=O)O)NC(=O)c1cc(O)n(-c2ccc(F)cc2F)n1` (stereo not shown) [Example 196], for which the IC50 is below 100 nM. Same read-out and setting: the same measure for `O=C(O)C[C@H](NC(=O)c1cc(O)n(-c2ccc(Cl)cc2)n1)c1ccccc1Br` [Example 270]: 100 to 1000 nM; for `COc1ccc([C@H](CC(=O)O)NC(=O)c2cc(O)n(-c3ccccc3Cl)n2)cn1` [Example 139]: 100 to 1000 nM; for `Cc1cc(F)ccc1C(CC(=O)O)NC(=O)c1cc(O)n(-c2ccccc2Cl)n1` (stereo not shown) [Example 142]: 100 to 1000 nM. With `O=C(O)CC(NC(=O)c1cc(O)n(-c2ccccc2)n1)c1cccc(Cl)c1F` (stereo not shown) [Example 172], the IC50 was in the range of 100 to 1000 nM.

The test is the same for the next values; noted with them: read-out: Activity (2): Cathepsin A inhibitory activity (IC50 class).
Regarding `CC(C)(C)[C@@](C)(O)COc1cc(C(=O)N[C@@H](CC(=O)O)c2cccc(C#N)c2)nn1-c1ccccc1F` [Example 778, (S)-3-(3-Cyano-phenyl)-3-{[1-(2-fluoro-phenyl)-5-((R)-2-hydroxy-2,3,3-trimethyl-butoxy)-1H-pyrazole-3-carbonyl]-amino}-propionic acid], the IC50 is below 100 nM.

Consider `O=C(O)CC(NC(=O)c1cc(O)n(-c2ccccc2F)n1)c1ccc(-n2cccn2)cc1` (stereo not shown) [Example 582], for which the IC50 lay in the range of 100 to 1000 nM. Still for that read-out and setting: the same measure for `CCOc1cc(C(=O)N[C@@H](CC(=O)O)c2ccccc2C(F)(F)F)nn1-c1ccccc1F` [Example 721]: 100 to 1000 nM; for `CC(C)(C)[C@@](C)(O)COc1cc(C(=O)N[C@@H](CC(=O)O)c2cccc(F)c2)nn1-c1ccccc1F` [Example 779, (S)-3-(3-Fluoro-phenyl)-3-{[1-(2-fluoro-phenyl)-5-((R)-2-hydroxy-2,3,3-trimethyl-butoxy)-1H-pyrazole-3-carbonyl]-amino}-propionic acid]: below 100 nM.

As to `Cc1ccc(C(CC(=O)O)NC(=O)c2cc(O)n(-c3ccccc3Cl)n2)c(F)c1` (stereo not shown) [Example 561, 3-{[1-(2-Chloro-phenyl)-5-hydroxy-1H-pyrazole-3-carbonyl]-amino}-3-(2-fluoro-4-methyl-phenyl)-propionic acid], the IC50 was in the range of 100 to 1000 nM. Regarding `O=C(O)CC(NC(=O)c1cc(O)n(-c2ccccc2F)n1)c1ccc(-c2ccccc2Cl)cc1` (stereo not shown) [Example 542], the IC50 is below 100 nM.

Still in this test, the particulars now being: read-out: Activity (2): Cathepsin A inhibitory activity, IC50 class.
For `CC(C)(C)[C@@](C)(O)COc1cc(C(=O)NC(CC(=O)O)C2CCCCC2)nn1-c1ccccc1F` (stereo partly drawn) [Example 820, 3-Cyclohexyl-3-{[1-(2-fluoro-phenyl)-5-((R)-2-hydroxy-2,3,3-trimethyl-butoxy)-1H-pyrazole-3-carbonyl]-amino}-propionic acid], the IC50 was below 100 nM.

Take `CC(C)(C)[C@H](O)COc1cc(C(=O)N[C@@H](CC(=O)O)c2cccc(Cl)c2Cl)nn1-c1ccccc1F` [Example 800, (S)-3-(2,3-Dichloro-phenyl)-3-{[1-(2-fluoro-phenyl)-5-((S)-2-hydroxy-3,3-dimethyl-butoxy)-1H-pyrazole-3-carbonyl]-amino}-propionic acid]: the IC50 is below 100 nM. The same measure, in the same setting: the same measure for `COc1ccc([C@H](CC(=O)O)NC(=O)c2cc(O)n(-c3ccc(F)cc3F)n2)cc1` [Example 382]: 100 to 1000 nM; for `O=C(O)CC(NC(=O)c1cc(O)n(-c2ccc(Cl)cc2)n1)c1ccc(F)cc1` (stereo not shown) [Example 73, 3-{[1-(4-Chloro-phenyl)-5-hydroxy-1H-pyrazole-3-carbonyl]-amino}-3-(4-fluoro-phenyl)-propionic acid]: 1000 to 30000 nM.

As for `Cc1ccc(C)c(-n2nc(C(=O)NC(CC(=O)O)C3CCCCC3)cc2O)c1` (stereo not shown) [Example 37], the IC50 lay within 1000 to 30000 nM. On the same count and under the same terms, next, `O=C(O)C[C@H](NC(=O)c1cc(O)n(-c2ccc(Cl)cc2)n1)c1cccnc1` [Example 298]: 1000 to 30000 nM; `CC(C)[C@](C)(O)COc1cc(C(=O)NC(CC(=O)O)C2CCCCC2)nn1-c1ccccc1F` (stereo partly drawn) [Example 803, 3-Cyclohexyl-3-{[1-(2-fluoro-phenyl)-5-((S)-2-hydroxy-2,3-dimethyl-butoxy)-1H-pyrazole-3-carbonyl]-amino}-propionic acid]: below 100 nM; `COc1ccc(C(CC(=O)O)NC(=O)c2cc(O)n(-c3ccccc3)n2)c(C)c1` (stereo not shown) [Example 373]: 100 to 1000 nM. The same measure, in the same setting: next, `CC(C)C(C)(O)COc1cc(C(=O)N[C@@H](CC(=O)O)c2cccc(C#N)c2)nn1-c1ccccc1F` (stereo partly drawn) [Example 807, (S)-3-(3-Cyano-phenyl)-3-{[1-(2-fluoro-phenyl)-5-(2-hydroxy-2,3-dimethyl-butoxy)-1H-pyrazole-3-carbonyl]-amino}-propionic acid]: below 100 nM.

As for `COc1ccc(Cl)cc1C(CC(=O)O)NC(=O)c1cc(O)n(-c2ccc(F)cc2)n1` (stereo not shown) [Example 344], the IC50 lay in the range of 100 to 1000 nM. On the same count and under the same terms, the same measure for `COc1ccccc1[C@H](CC(=O)O)NC(=O)c1cc(O)n(-c2cccc(F)c2)n1` [Example 307]: 100 to 1000 nM. On the same count and under the same terms, next, `CC(C)C(C)(O)COc1cc(C(=O)N[C@H](CC(=O)O)Cc2ccccc2)nn1-c1ccccc1F` (stereo partly drawn) [Example 838, (S)-3-{[1-(2-Fluoro-phenyl)-5-(2-hydroxy-2,3-dimethyl-butoxy)-1H-pyrazole-3-carbonyl]-amino}-4-phenyl-butyric acid]: 1000 to 30000 nM.

On to `O=C(O)C[C@H](NC(=O)c1cc(O)n(-c2ccc(Cl)cc2)n1)c1ccc(F)cc1` [Example 276], for which the IC50 fell in the range of 1000 to 30000 nM.

In the case of `O=C(O)C[C@H](NC(=O)c1cc(O)n(-c2ccccc2Cl)n1)c1cccc(F)c1` [Example 393], the IC50 lay in the range of 100 to 1000 nM. On the same count and under the same terms, the same measure for `Cc1ccccc1[C@H](CC(=O)O)NC(=O)c1cc(OC[C@](C)(O)C(C)C)n(-c2ccccc2F)n1` [Example 857, (S)-3-{[1-(2-Fluoro-phenyl)-5-((R)-2-hydroxy-2,3-dimethyl-butoxy)-1H-pyrazole-3-carbonyl]-amino}-3-o-tolyl-propionic acid]: below 100 nM.

`COc1ccc(Cl)cc1C(CC(=O)O)NC(=O)c1cc(O)n(-c2ccccc2)n1` (stereo not shown) [Example 375]: the IC50 was in the range of 100 to 1000 nM.

The same test, now with this note: recombinant human cathepsin A 833 ng/ml, Bodipy FL-labeled bradykinin 2 μM, pH 5.5; read-out: CATH-A IC50.
Consider `CC(C)[C@](C)(O)COc1cc(C(=O)NC(CC(=O)O)C2CCCCC2)nn1-c1ccccc1F` (stereo partly drawn) [Example 803, 3-Cyclohexyl-3-{[1-(2-fluoro-phenyl)-5-((S)-2-hydroxy-2,3-dimethyl-butoxy)-1H-pyrazole-3-carbonyl]-amino}-propionic acid], for which the IC50 stood at 26.7 nM. Still for that read-out and setting: next, `Cc1ccc(C(CC(=O)O)NC(=O)c2cc(O)n(-c3ccccc3Cl)n2)c(F)c1` (stereo not shown) [Example 561, 3-{[1-(2-Chloro-phenyl)-5-hydroxy-1H-pyrazole-3-carbonyl]-amino}-3-(2-fluoro-4-methyl-phenyl)-propionic acid]: 266 nM; `CN(C)c1ccc(C(CC(=O)O)NC(=O)c2cc(O)n(-c3cccc(Cl)c3)n2)c(Cl)c1` (stereo not shown) [Example 463, 3-(2-Chloro-4-dimethylamino-phenyl)-3-{[1-(3-chloro-phenyl)-5-hydroxy-1H-pyrazole-3-carbonyl]-amino}-propionic acid]: 11100 nM. Still for that read-out and setting: the same measure for `Cc1c(F)cccc1C(CC(=O)O)NC(=O)c1cc(O)n(-c2ccccc2Cl)n1` (stereo not shown) [Example 455, 3-{[1-(2-Chloro-phenyl)-5-hydroxy-1H-pyrazole-3-carbonyl]-amino}-3-(3-fluoro-2-methyl-phenyl)-propionic acid]: 154 nM.

The test is the same for the next values; noted with them: recombinant human cathepsin A; read-out: Activity (2): Cathepsin A inhibitory activity, IC50 class.
In the case of `COc1ccc([C@H](CC(=O)O)NC(=O)c2cc(O)n(-c3ccc(F)cc3)n2)cc1` [Example 435], the half-inhibitory concentration (IC50) was 100 to 1000 nM. On the same count and under the same terms, next, `O=C(O)CC(NC(=O)c1cc(O)n(-c2ccccc2F)n1)c1ccc(N2CCOCC2)cc1` (stereo not shown) [Example 518]: 1000 to 30000 nM. Same read-out and setting: the same measure for `CN(C)c1ccc(C(CC(=O)O)NC(=O)c2cc(O)n(-c3cccc(Cl)c3)n2)c(Cl)c1` (stereo not shown) [Example 463, 3-(2-Chloro-4-dimethylamino-phenyl)-3-{[1-(3-chloro-phenyl)-5-hydroxy-1H-pyrazole-3-carbonyl]-amino}-propionic acid]: 1000 to 30000 nM; for `O=C(O)CC(NC(=O)c1cc(O)n(-c2ccc(F)cc2)n1)c1cc(F)ccc1Cl` (stereo not shown) [Example 524, 3-(2-Chloro-5-fluoro-phenyl)-3-{[1-(4-fluoro-phenyl)-5-hydroxy-1H-pyrazole-3-carbonyl]-amino}-propionic acid]: 100 to 1000 nM; for `Cc1c(F)cccc1C(CC(=O)O)NC(=O)c1cc(O)n(-c2ccccc2Cl)n1` (stereo not shown) [Example 455, 3-{[1-(2-Chloro-phenyl)-5-hydroxy-1H-pyrazole-3-carbonyl]-amino}-3-(3-fluoro-2-methyl-phenyl)-propionic acid]: 100 to 1000 nM.
